Test results reported in patent US12172990B2 (Constellation Pharmaceuticals, Inc., priority 2018, dated 2024).

Key:
full length human TREX1 = full length human TREX1 (Homo sapiens (Human), UniProt Q9NSU2); experiment: TREX1 Biochemical Assay (fluorescence assay measuring degradation of dsDNA substrate); conditions: 150 pM TREX1, 60 nM dsDNA substrate, 25 minutes at room temperature
Method: Degradation of the dsDNA liberates free fluorophore to produce a fluorescent signal. Specifically, 7.5 μL of N-terminally His-Tev tagged full length human TREX1 (expressed in E. coli and purified in house) in reaction buffer (50 mM Tris (pH 7.4), 150 mM NaCl, 2 mM DTT, 0.1 mg/mL BSA, 0.01% (v/v) Tween-20 and 100 mM MgCl2 were added to a 384-well Black ProxiPlate Plus (Perkin Elmer) which already contained compound (150 nL) at varying concentrations as a 10 point dose-response in DMSO. To this was added 7.5 μL of dsDNA substrate (Strand A: 5′ TEX615/GCT AGG CAG 3′; Strand B: 5′ CTG CCT AGC/IAbRQSp (Integrated DNA Technologies)) in reaction buffer. Final concentrations were 150 pM TREX1, 60 nM dsDNA substrate in reaction buffer with 1.0% DMSO (v/v). After 25 minutes at room temperature, reactions were quenched by the addition of 5 μL of stop buffer (same as reaction buffer plus 200 mM EDTA). Final concentrations in the quenched reaction were 112.5 pM TREX1, 45 nM DNA and 50 mM EDTA in a volume of 20 μL. After a 5-minute incubation at room temperature, plates were read in a laser sourced Envision (Perkin-Elmer), measuring fluorescence at 615 nm following excitation w/570 nm light. IC50 values were calculated by comparing the measured fluorescence at 615 nm ratio relative to control wells pre-quenched w/stop buffer (100% inhibition) and no inhibitor (0% inhibition) controls as using non-linear least square four parameter fits and either Genedata or GraphPad Prism (GraphPad Software, Inc.).

[1] = target: human TREX2 (residues M44-A279) (Homo sapiens (Human), UniProt Q9BQ50); experiment: TREX2 Biochemical Assay (fluorescence assay measuring degradation of dsDNA substrate); conditions: 2.5 nM TREX2, 60 nM dsDNA substrate, 25 minutes at room temperature
Method: Degradation of the dsDNA liberates free fluorophore to produce a fluorescent signal. Specifically, 7.5 μL of N-terminally His-Tev tagged human TREX2 (residues M44-A279, expressed in E. coli and purified in house) in reaction buffer (50 mM Tris (pH 7.4), 150 mM NaCl, 2 mM DTT, 0.1 mg/mL BSA, 0.01% (v/v) Tween-20 and 100 mM MgCl2) was added to a 384-well Black ProxiPlate Plus (Perkin Elmer) which already contained compound (150 nL) at varying concentrations as a 10 point dose-response in DMSO. To this was added 7.5 μL of dsDNA substrate (Strand A: 5′ TEX615/GCT AGG CAG 3′; Strand B: 5′ CTG CCT AGC/IAbRQSp (IDT)) in reaction buffer. Final concentrations were 2.5 nM TREX2, 60 nM dsDNA substrate in reaction buffer with 1.0% DMSO (v/v). After 25 minutes at room temperature, reactions were quenched by the addition of 5 μL of stop buffer (same as reaction buffer plus 200 mM EDTA). Final concentrations in the quenched reaction mixture were […] TREX2, 45 nM DNA and 50 mM EDTA in a volume of 20 μL. After a 5-minute incubation at room temperature, plates were read in a laser sourced Envision (Perkin-Elmer), measuring fluorescence at 615 nm following excitation w/570 nm light. IC50 values were calculated by comparing the measured fluorescence at 615 nm ratio relative to control wells pre-quenched w/stop buffer (100% inhibition) and no inhibitor (0% inhibition) controls as using non-linear least square four parameter fits and either Genedata or GraphPad Prism (GraphPad Software, Inc.).

full length human TREX1, sequence (Q9NSU2 whole entry): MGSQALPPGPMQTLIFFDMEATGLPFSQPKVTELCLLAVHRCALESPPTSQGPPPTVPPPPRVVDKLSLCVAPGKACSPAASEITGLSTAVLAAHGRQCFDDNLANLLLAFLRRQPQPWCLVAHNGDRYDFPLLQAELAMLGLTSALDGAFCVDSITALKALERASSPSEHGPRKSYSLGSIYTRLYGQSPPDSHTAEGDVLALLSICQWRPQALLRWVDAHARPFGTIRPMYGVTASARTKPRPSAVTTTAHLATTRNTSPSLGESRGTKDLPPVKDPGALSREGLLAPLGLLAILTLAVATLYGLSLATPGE
human TREX2 (residues M44-A279), sequence (Q9BQ50 whole entry, the tested form may be a part): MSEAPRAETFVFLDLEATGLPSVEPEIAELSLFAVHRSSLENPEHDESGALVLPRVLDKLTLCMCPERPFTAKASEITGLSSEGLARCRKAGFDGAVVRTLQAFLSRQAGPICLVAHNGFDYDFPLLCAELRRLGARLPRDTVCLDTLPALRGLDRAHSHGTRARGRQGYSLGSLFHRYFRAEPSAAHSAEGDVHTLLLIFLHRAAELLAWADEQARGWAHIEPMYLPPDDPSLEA

Work on `Cn1c(Cc2ccccn2)nc(C(=O)Nc2cnoc2)c(O)c1=O` [Example 26, 5-hydroxy-N-(isoxazol-4-yl)-1-methyl-6-oxo-2-(pyridin-2-ylmethyl)-1,6-dihydropyrimidine-4-carboxamide] yielded an IC50 (full length human TREX1) of 1000 to 10000 nM and an IC50 [1] of 10000 to 100000 nM.
For `Cn1c(-c2ccccn2)nc(C(=O)Nc2cnoc2)c(O)c1=O` [Example 27, 5-hydroxy-N-(isoxazol-4-yl)-1-methyl-6-oxo-2-(pyridin-2-yl)-1,6-dihydropyrimidine-4-carboxamide], the IC50 (full length human TREX1) was greater than 10000 nM and the IC50 [1] was greater than 100000 nM.
Compound `Cn1c(N2CCCCC2)nc(C(=O)Nc2cnoc2)c(O)c1=O` [Example 28, 5-hydroxy-N-(isoxazol-4-yl)-1-methyl-6-oxo-2-(piperidin-1-yl)-1,6-dihydropyrimidine-4-carboxamide] has an IC50 (full length human TREX1) of 100 to 1000 nM and an IC50 [1] of 10000 to 100000 nM.
With `Cn1c(-c2cccnc2)nc(C(=O)Nc2cnoc2)c(O)c1=O` [Example 29, 5-hydroxy-N-(isoxazol-4-yl)-1-methyl-6-oxo-2-(pyridin-3-yl)-1,6-dihydropyrimidine-4-carboxamide] the IC50 (full length human TREX1) was 1000 to 10000 nM and the IC50 [1] was 10000 to 100000 nM.
`Cn1c(-c2cc(Cl)cc(Cl)c2)nc(C(=O)Nc2cnoc2)c(O)c1=O` [Example 30, 2-(3,5-dichlorophenyl)-5-hydroxy-N-(isoxazol-4-yl)-1-methyl-6-oxo-1,6-dihydropyrimidine-4-carboxamide] was tested, and the IC50 (full length human TREX1) was 100 to 1000 nM and the IC50 [1] was 1000 to 10000 nM.
Work on `Cc1cc(-c2nc(C(=O)Nc3cnoc3)c(O)c(=O)n2C)cc(N2CCOCC2)c1` [Example 31, 5-hydroxy-N-(isoxazol-4-yl)-1-methyl-2-(3-methyl-5-morpholinophenyl)-6-oxo-1,6-dihydropyrimidine-4-carboxamide] yielded an IC50 (full length human TREX1) of 100 to 1000 nM and an IC50 [1] of 1000 to 10000 nM.
For `Cc1cc(Nc2cnn(C)c2)cc(-c2nc(C(=O)Nc3cnoc3)c(O)c(=O)n2C)c1` [Example 32, 5-hydroxy-N-(isoxazol-4-yl)-1-methyl-2-(3-methyl-5-((1-methyl-1H-pyrazol-4-yl)amino)phenyl)-6-oxo-1,6-dihydropyrimidine-4-carboxamide], the IC50 (full length human TREX1) was 100 to 1000 nM and the IC50 [1] was 1000 to 10000 nM.
Compound `Cc1cc(-c2nc(C(=O)Nc3cnoc3)c(O)c(=O)n2C)cc(N2CCN(C)CC2)c1` [Example 33, 5-hydroxy-N-(isoxazol-4-yl)-1-methyl-2-(3-methyl-5-(4-methylpiperazin-1-yl)phenyl)-6-oxo-1,6-dihydropyrimidine-4-carboxamide] has an IC50 (full length human TREX1) of 100 to 1000 nM and an IC50 [1] of 10000 to 100000 nM.
With `Cc1cc(Nc2cccc(C)n2)cc(-c2nc(C(=O)Nc3cnoc3)c(O)c(=O)n2C)c1` [Example 34, 5-hydroxy-N-(isoxazol-4-yl)-1-methyl-2-(3-methyl-5-((6-methylpyridin-2-yl)amino)phenyl)-6-oxo-1,6-dihydropyrimidine-4-carboxamide] the IC50 (full length human TREX1) was 100 to 1000 nM and the IC50 [1] was 1000 to 10000 nM.
For `Cc1cc(-c2ccn(C)n2)cc(-c2nc(C(=O)Nc3cnoc3)c(O)c(=O)n2C)c1` [Example 35, 5-hydroxy-N-(isoxazol-4-yl)-1-methyl-2-(3-methyl-5-(1-methyl-1H-pyrazol-3-yl)phenyl)-6-oxo-1,6-dihydropyrimidine-4-carboxamide], the IC50 (full length human TREX1) was 100 to 1000 nM and the IC50 [1] was 1000 to 10000 nM.
`Cc1cc(C(=O)N(C)C)cc(-c2nc(C(=O)Nc3cnoc3)c(O)c(=O)n2C)c1` [Example 36, 2-(3-(dimethylcarbamoyl)-5-methylphenyl)-5-hydroxy-N-(isoxazol-4-yl)-1-methyl-6-oxo-1,6-dihydropyrimidine-4-carboxamide] gave an IC50 (full length human TREX1) of 100 to 1000 nM and an IC50 [1] of 10000 to 100000 nM.
`Cc1cc(C(=O)NC2CCOCC2)cc(-c2nc(C(=O)Nc3cnoc3)c(O)c(=O)n2C)c1` [Example 37, 5-hydroxy-N-(isoxazol-4-yl)-1-methyl-2-(3-methyl-5-((tetrahydro-2H-pyran-4-yl)carbamoyl)phenyl)-6-oxo-1,6-dihydropyrimidine-4-carboxamide] was tested, and the IC50 (full length human TREX1) was 100 to 1000 nM and the IC50 [1] was 10000 to 100000 nM.
`Cc1cc(C(=O)NCCO)cc(-c2nc(C(=O)Nc3cnoc3)c(O)c(=O)n2C)c1` [Example 38, 5-hydroxy-2-(3-((2-hydroxyethyl)carbamoyl)-5-methylphenyl)-N-(isoxazol-4-yl)-1-methyl-6-oxo-1,6-dihydropyrimidine-4-carboxamide] showed an IC50 (full length human TREX1) of 100 to 1000 nM and an IC50 [1] of 10000 to 100000 nM.
In the case of `Cn1c(C2CCCN(Cc3ccccc3)C2)nc(C(=O)Nc2cnoc2)c(O)c1=O` (stereo not drawn) [Example 39, 2-(1-benzylpiperidin-3-yl)-5-hydroxy-N-(isoxazol-4-yl)-1-methyl-6-oxo-1,6-dihydropyrimidine-4-carboxamide], the IC50 (full length human TREX1) is reported as 1000 to 10000 nM and the IC50 [1] is reported as 10000 to 100000 nM.
With `Cn1c(C2CCCN(C(=O)c3ccccn3)C2)nc(C(=O)Nc2cnoc2)c(O)c1=O` (stereo not drawn) [Example 40, 5-hydroxy-N-(isoxazol-4-yl)-1-methyl-6-oxo-2-(1-picolinoylpiperidin-3-yl)-1,6-dihydropyrimidine-4-carboxamide] the IC50 (full length human TREX1) was 100 to 1000 nM and the IC50 [1] was 1000 to 10000 nM.
Work on `COc1ccccc1C(=O)N1CCCC(c2nc(C(=O)Nc3cnoc3)c(O)c(=O)n2C)C1` (stereo not drawn) [Example 41, 5-hydroxy-N-(isoxazol-4-yl)-2-(1-(2-methoxybenzoyl)piperidin-3-yl)-1-methyl-6-oxo-1,6-dihydropyrimidine-4-carboxamide] yielded an IC50 (full length human TREX1) of 100 to 1000 nM and an IC50 [1] of 10000 to 100000 nM.
In the case of `Cn1c(-c2cnn(Cc3ccccc3)c2)nc(C(=O)Nc2cnoc2)c(O)c1=O` [Example 42, 2-(1-benzyl-1H-pyrazol-4-yl)-5-hydroxy-N-(isoxazol-4-yl)-1-methyl-6-oxo-1,6-dihydropyrimidine-4-carboxamide], the IC50 (full length human TREX1) is reported as 100 to 1000 nM and the IC50 [1] is reported as 10000 to 100000 nM.
In the case of `Cn1c(C2CCCN(C(=O)CCc3ccccc3)C2)nc(C(=O)Nc2cnoc2)c(O)c1=O` (stereo not drawn) [Example 43, 5-hydroxy-N-(isoxazol-4-yl)-1-methyl-6-oxo-2-(1-(3-phenylpropanoyl)piperidin-3-yl)-1,6-dihydropyrimidine-4-carboxamide], the IC50 (full length human TREX1) is reported as less than 100 nM and the IC50 [1] is reported as 1000 to 10000 nM.
In the case of `Cc1cccc(-c2nc(C(=O)Nc3cnoc3)c(O)c(=O)n2C)c1` [Example 44, 5-hydroxy-N-(isoxazol-4-yl)-1-methyl-6-oxo-2-(m-tolyl)-1,6-dihydropyrimidine-4-carboxamide], the IC50 (full length human TREX1) is reported as 100 to 1000 nM and the IC50 [1] is reported as 10000 to 100000 nM.
Compound `Cn1c(C2CCCN(C(=O)c3cccc(Cl)c3)C2)nc(C(=O)Nc2cnoc2)c(O)c1=O` (stereo not drawn) [Example 45, 2-(1-(3-chlorobenzoyl)piperidin-3-yl)-5-hydroxy-N-(isoxazol-4-yl)-1-methyl-6-oxo-1,6-dihydropyrimidine-4-carboxamide] has an IC50 (full length human TREX1) of less than 100 nM and an IC50 [1] of 1000 to 10000 nM.
`Cn1c(C2CCCN(C(=O)c3ccccc3Cl)C2)nc(C(=O)Nc2cnoc2)c(O)c1=O` (stereo not drawn) [Example 46, 2-(1-(2-chlorobenzoyl)piperidin-3-yl)-5-hydroxy-N-(isoxazol-4-yl)-1-methyl-6-oxo-1,6-dihydropyrimidine-4-carboxamide] gave an IC50 (full length human TREX1) of 100 to 1000 nM and an IC50 [1] of 10000 to 100000 nM.
Compound `COc1ccc(C(=O)N2CCCC(c3nc(C(=O)Nc4cnoc4)c(O)c(=O)n3C)C2)cc1` (stereo not drawn) [Example 47, 5-hydroxy-N-(isoxazol-4-yl)-2-(1-(4-methoxybenzoyl)piperidin-3-yl)-1-methyl-6-oxo-1,6-dihydropyrimidine-4-carboxamide] has an IC50 (full length human TREX1) of 100 to 1000 nM and an IC50 [1] of 1000 to 10000 nM.
For `COc1cccc(C(=O)N2CCCC(c3nc(C(=O)Nc4cnoc4)c(O)c(=O)n3C)C2)c1` (stereo not drawn) [Example 48, 5-hydroxy-N-(isoxazol-4-yl)-2-(1-(3-methoxybenzoyl)piperidin-3-yl)-1-methyl-6-oxo-1,6-dihydropyrimidine-4-carboxamide], the IC50 (full length human TREX1) was 100 to 1000 nM and the IC50 [1] was 1000 to 10000 nM.
In the case of `CN1CCN(c2nc(C(=O)Nc3cnoc3)c(O)c(=O)n2C)CC1` [Example 49, 5-hydroxy-N-(isoxazol-4-yl)-1-methyl-2-(4-methylpiperazin-1-yl)-6-oxo-1,6-dihydropyrimidine-4-carboxamide], the IC50 (full length human TREX1) is reported as 100 to 1000 nM and the IC50 [1] is reported as 10000 to 100000 nM.
